Test results taken from patent publication US12351570B2 (MERCK PATENT GMBH, priority 2018, dated 2025).

System: MDA-MB-231 cells
Experiment: Extracellular lactate production inhibition after 4 h, MDA-MB-231
Conditions: Homo sapiens, MDA-MB-231

**Q.** For CNc1cc(C#Cc2ccccc2NS(=O)(=O)c2ccc(OC)c3cccnc23)ccc1C(=O)O [Compound 232, 4-{2-[2-(5-methoxyquinoline-8-sulfonamido)phenyl]ethynyl}-2-(methylamino)benzoic acid], which IC50 is on record?
**A.** The IC50 was 100 to 1000 nM.

**Q.** How did the IC50 turn out when Cc1ccc2cccnc2c1S(=O)(=O)Nc1ccc(Br)cc1C#Cc1cnc(C(=O)O)c2ccccc12 [Compound 233, 4-{2-[5-bromo-2-(7-methylquinoline-8-sulfonamido)phenyl]ethynyl}isoquinoline-1-carboxylic acid] was run?
**A.** Its IC50 is 10 to 100 nM.

**Q.** Cc1ccc2cccnc2c1S(=O)(=O)Nc1ccc(Cl)cc1C#Cc1cnc(C(=O)O)c2ccccc12 [Compound 234, 4-{2-[5-chloro-2-(7-methylquinoline-8-sulfonamido)phenyl]ethynyl}isoquinoline-1-carboxylic acid] was tested. Which IC50 did it give?
**A.** The IC50 was 10 to 100 nM.

**Q.** With COc1ccc(S(=O)(=O)Nc2ccc(Br)cc2C#Cc2cnc(C(=O)O)c3ccccc23)c2ncccc12 [Compound 235, 4-{2-[5-bromo-2-(5-methoxyquinoline-8-sulfonamido)phenyl]ethynyl}isoquinoline-1-carboxylic acid] as the compound, how does the IC50 read?
**A.** Its IC50 is 1 to 10 nM.

**Q.** How did the IC50 turn out when COc1ccc(S(=O)(=O)Nc2ccc(Cl)cc2C#Cc2cnc(C(=O)O)c3ccccc23)c2ncccc12 [Compound 236, 4-{2-[5-chloro-2-(5-methoxyquinoline-8-sulfonamido)phenyl]ethynyl}isoquinoline-1-carboxylic acid] was run?
**A.** The IC50 was 10 to 100 nM.

**Q.** For CNc1cc(C#Cc2cc(Cl)ccc2NS(=O)(=O)c2c(C)ccc3cccnc23)cnc1C(=O)O [Compound 237, 5-{2-[5-chloro-2-(7-methylquinoline-8-sulfonamido)phenyl]ethynyl}-3-(methylamino)pyridine-2-carboxylic acid], which IC50 is on record?
**A.** Its IC50 is 1 to 10 nM.

**Q.** With COc1ccc(S(=O)(=O)Nc2ccc(Br)cc2C#Cc2ccc(C(=O)N(C)C)nc2)c2ncccc12 [Compound 238, 5-{2-[5-bromo-2-(5-methoxyquinoline-8-sulfonamido)phenyl]ethynyl}-N,N-dimethylpyridine-2-carboxamide] as the compound, how does the IC50 read?
**A.** The IC50 was 1000 to 100000 nM.

**Q.** How did the IC50 turn out when COc1ccc(S(=O)(=O)Nc2ccc(Cl)cc2C#Cc2ccc(C(=O)N(C)C)nc2)c2ncccc12 [Compound 239, 5-{2-[5-chloro-2-(5-methoxyquinoline-8-sulfonamido)phenyl]ethynyl}-N,N-dimethylpyridine-2-carboxamide] was run?
**A.** Its IC50 is 1000 to 100000 nM.

**Q.** How did the IC50 turn out when COc1cc(C(=O)O)ncc1C#Cc1ccccc1NS(=O)(=O)c1ccc(OC)c(C)c1C [Compound 241, 4-methoxy-5-{2-[2-(4-methoxy-2,3-dimethylbenzenesulfonamido)-phenyl]ethynyl}pyridine-2-carboxylic acid] was run?
**A.** Its IC50 is 10 to 100 nM.

**Q.** CNc1cc(C#Cc2cc(Cl)ccc2NS(=O)(=O)c2ccc(OC)c3cccnc23)cnc1C(=O)O [Compound 242, 5-{2-[5-chloro-2-(5-methoxyquinoline-8-sulfonamido)phenyl]ethynyl}-3-(methyl-amino)pyridine-2-carboxylic acid] was tested. Which IC50 did it give?
**A.** The IC50 was 1 to 10 nM.

**Q.** For COc1cc(C(=O)O)ncc1C#Cc1cc(Cl)ccc1NS(=O)(=O)c1ccc(OC)c(C)c1C [Compound 243, 5-{2-[5-chloro-2-(4-methoxy-2,3-dimethylbenzenesulfonamido)-phenyl]ethynyl}-4-methoxypyridine-2-carboxylic acid], which IC50 is on record?
**A.** The IC50 was 1 to 10 nM.

**Q.** For COC(=O)c1ccc(C#Cc2cc([N+](=O)[O-])ccc2NS(=O)(=O)c2c(C)ccc3cccnc23)cn1 [Compound 244, methyl 5-{2-[2-(7-methylquinoline-8-sulfonamido)-5-nitrophenyl]ethynyl}-pyridine-2-carboxylate], which IC50 is on record?
**A.** Its IC50 is 10 to 100 nM.

**Q.** For COc1ccc(S(=O)(=O)Nc2ccccc2C#Cc2cnc3c(c2)CN(C)C3=O)c2ncccc12 [Compound 245, 5-methoxy-N-[2-(2-{6-methyl-7-oxo-5H,6H,7H-pyrrolo[3,4-b]pyridin-3-yl}ethynyl)phenyl]quinoline-8-sulfonamide], which IC50 is on record?
**A.** The IC50 was 1000 to 100000 nM.

**Q.** How did the IC50 turn out when CNc1cc(C#Cc2ccccc2NS(=O)(=O)c2ccc(OC)c3cccnc23)cnc1C(=O)N(C)C [Compound 246, 5-{2-[2-(5-methoxyquinoline-8-sulfonamido)phenyl]ethynyl}-N,N-dimethyl-3-(methylamino)pyridine-2-carboxamide] was run?
**A.** The IC50 was 1000 to 100000 nM.

**Q.** For COc1ccc(NS(=O)(=O)c2c(C)ccc3cccnc23)c(C#Cc2ccc(C(=O)O)nc2)c1 [Compound 247, 5-{2-[5-methoxy-2-(7-methylquinoline-8-sulfonamido)phenyl]ethynyl}pyridine-2-carboxylic acid], which IC50 is on record?
**A.** Its IC50 is 10 to 100 nM.

**Q.** Which IC50 does the source give for Cc1ccc2cccnc2c1S(=O)(=O)Nc1ccc(N(C)C)cc1C#Cc1ccc(C(=O)O)nc1 [Compound 248, 5-{2-[5-(dimethylamino)-2-(7-methylquinoline-8-sulfonamido)phenyl]ethynyl}pyridine-2-carboxylic acid] here?
**A.** The IC50 was 100 to 1000 nM.

**Q.** With O=C(O)c1ccc(C#Cc2ccccc2NS(=O)(=O)c2ccc3c(c2)OCCO3)cc1 [Compound 250, 4-[2-(2,3-Dihydro-benzo[1,4]dioxine-6-sulfonylamino)-phenylethynyl]-benzoic acid] as the compound, how does the IC50 read?
**A.** Its IC50 is 1000 to 100000 nM.

**Q.** With O=C(O)c1ccc(C#Cc2ccccc2NS(=O)(=O)c2cccc3c2OC(F)(F)O3)cc1 [Compound 251, 4-[2-(2,2-Difluoro-benzo[1,3]dioxole-4-sulfonylamino)-phenylethynyl]-benzoic acid] as the compound, how does the IC50 read?
**A.** The IC50 was 1000 to 100000 nM.

**Q.** Which IC50 does the source give for COc1ccc(S(=O)(=O)Nc2ccccc2C#Cc2ccc(C(=O)NS(C)(=O)=O)cc2)c2ccccc12 [Compound 252, 4-Methoxy-naphthalene-1-sulfonic acid [2-(4-methanesulfonylaminocarbonyl-phenylethynyl)-phenyl]-amide] here?
**A.** The IC50 was 1000 to 100000 nM.

**Q.** How did the IC50 turn out when COc1ccc(S(=O)(=O)Nc2ccccc2C#Cc2ccc(C(=O)NC#N)cc2)c2ccccc12 [Compound 253, N-cyano-4-{2-[2-(4-methoxy-naphthalene-1-sulfonamido)phenyl]-ethynyl}benzamide] was run?
**A.** The IC50 was 1000 to 100000 nM.

**Q.** O=C(O)c1ccc(C#Cc2ccccc2NS(=O)(=O)c2cccc3c2OCCO3)cc1 [Compound 254, 4-[2-(2,3-Dihydro-benzo[1,4]dioxine-5-sulfonylamino)-phenylethynyl]-benzoic acid] was tested. Which IC50 did it give?
**A.** The IC50 was 1000 to 100000 nM.

**Q.** For COc1ccc(S(=O)(=O)Nc2ccc(F)cc2C#Cc2ccc(C(=O)NC#N)nc2)c2ccccc12 [Compound 256, N-cyano-5-{2-[5-fluoro-2-(4-methoxynaphthalene-1-sulfonamido)-phenyl]ethynyl}pyridine-2-carboxamide], which IC50 is on record?
**A.** The IC50 was 1000 to 100000 nM.

**Q.** COc1cc(S(=O)(=O)Nc2ccccc2C#Cc2ccc(C(=O)O)cc2)cc2ccccc12 [Compound 258, 4-[2-(4-Methoxy-naphthalene-2-sulfonylamino)-phenylethynyl]-benzoic acid] was tested. Which IC50 did it give?
**A.** The IC50 was 100 to 1000 nM.

**Q.** For COc1ccc(S(=O)(=O)Nc2ccccc2C#Cc2ccc(C(N)=O)cc2)c2ccccc12 [Compound 261, 4-[2-(4-Methoxy-naphthalene-1-sulfonylamino)-phenylethynyl]-benzamide], which IC50 is on record?
**A.** The IC50 was 1000 to 100000 nM.

**Q.** Cc1cnc2c(S(=O)(=O)Nc3ccccc3C#Cc3ccc(C(=O)O)nc3)cccc2c1 [Compound 262, 5-[2-(3-Methyl-quinoline-8-sulfonyl-amino)-phenylethynyl]-pyridine-2-carboxylic acid] was tested. Which IC50 did it give?
**A.** Its IC50 is 100 to 1000 nM.

**Q.** For COc1ccc(S(=O)(=O)Nc2ccccc2C#Cc2ccc(C(=O)O)cc2)cc1OC [Compound 263, 4-[2-(3,4-Dimethoxy-benzenesulfonyl-amino)-phenylethynyl]-benzoic acid], which IC50 is on record?
**A.** The IC50 was 1000 to 100000 nM.

**Q.** With Cc1ccnc2c(S(=O)(=O)Nc3ccccc3C#Cc3ccc(C(=O)O)nc3)cccc12 [Compound 264, 5-[2-(4-Methyl-quinoline-8-sulfonyl-amino)-phenylethynyl]-pyridine-2-carboxylic acid] as the compound, how does the IC50 read?
**A.** The IC50 was 100 to 1000 nM.

**Q.** Which IC50 does the source give for Cc1cc(S(=O)(=O)Nc2ccccc2C#Cc2ccc(C(=O)O)nc2)c2ncccc2c1 [Compound 265, 5-[2-(6-Methyl-quinoline-8-sulfonyl-amino)-phenylethynyl]-pyridine-2-carboxylic acid] here?
**A.** The IC50 was 100 to 1000 nM.

**Q.** Which IC50 does the source give for O=C(O)c1ccc(C#Cc2ccccc2NS(=O)(=O)c2cccc3c(Cl)ccnc23)cn1 [Compound 266, 5-[2-(4-Chloro-quinoline-8-sulfonylamino)-phenylethynyl]-pyridine-2-carboxylic acid] here?
**A.** The IC50 was 10 to 100 nM.

**Q.** With Cc1ccc2cccc(S(=O)(=O)Nc3ccccc3C#Cc3ccc(C(=O)O)nc3)c2n1 [Compound 267, 5-[2-(2-Methyl-quinoline-8-sulfonylamino)-phenylethynyl]-pyridine-2-carboxylic acid] as the compound, how does the IC50 read?
**A.** Its IC50 is 100 to 1000 nM.

**Q.** Which IC50 does the source give for O=C(O)c1ccc(C#Cc2cc(Cl)ccc2NS(=O)(=O)c2ccc(Cl)cc2)cc1 [Compound 269, 4-[5-Chloro-2-(4-chloro-benzenesulfonylamino)-phenylethynyl]-benzoic acid, reference compound] here?
**A.** The IC50 was 1000 to 100000 nM.

**Q.** O=C(O)c1ccc(C#Cc2ccccc2NS(=O)(=O)c2cccc3cc(Cl)cnc23)cc1 [Compound 270, 4-[2-(3-Chloro-quinoline-8-sulfonyl-amino)-phenylethynyl]-benzoic acid] was tested. Which IC50 did it give?
**A.** Its IC50 is 100 to 1000 nM.

**Q.** Which IC50 does the source give for O=C(O)c1ccc(C#Cc2ccccc2NS(=O)(=O)c2cccc3cc(Cl)cnc23)cn1 [Compound 271, 5-[2-(3-Chloro-quinoline-8-sulfonyl-amino)-phenylethynyl]-pyridine-2-carboxylic acid] here?
**A.** Its IC50 is 100 to 1000 nM.

**Q.** With O=C(O)c1ccc(C#Cc2ccccc2NS(=O)(=O)c2cccc3ncc(Cl)cc23)cc1 [Compound 272, 4-[2-(3-Chloro-quinoline-5-sulfonyl-amino)-phenylethynyl]-benzoic acid] as the compound, how does the IC50 read?
**A.** Its IC50 is 1000 to 100000 nM.

**Q.** For O=C(O)c1ccc(C#Cc2ccccc2NS(=O)(=O)c2cc(Cl)c(Cl)s2)cc1 [Compound 275, 4-{2-[2-(4,5-dichlorothiophene-2-sulfonamido)phenyl]ethynyl}benzoic acid], which IC50 is on record?
**A.** The IC50 was 1000 to 100000 nM.

**Q.** O=C(O)c1ccc(C#Cc2ccccc2NS(=O)(=O)c2cc3ccccc3s2)cc1 [Compound 276, 4-{2-[2-(1-benzothiophene-2-sulfonamido)phenyl]ethynyl}benzoic acid] was tested. Which IC50 did it give?
**A.** The IC50 was 1000 to 100000 nM.

Same assay, conditions: Table 3; group class A-D; the table does not say which assay or cell line ("the assays described above")

**Q.** How did the IC50 turn out when COc1ccc(S(=O)(=O)Nc2ccc(F)cc2C#Cc2ccc(C(=O)NS(C)(=O)=O)nc2)c2ccccc12 [Compound 255, 4-Methoxy-naphthalene-1-sulfonic acid [4-fluoro-2-(6-methanesulfonyl-aminocarbonyl-pyridin-3-ylethynyl)-phenyl]-amide] was run?
**A.** The IC50 was 1000 to 100000 nM.
